The record followed here is patent publication US9737502B2, “Calebin A for hepatic steatosis” (SAMI LABS LIMITED, priority 2011, dated 2017).

In one assay the test system is IL-1β. The experiment in a line: Extracellular IL-1β in LPS-stimulated murine neutrophils. It counts as cell-based. Particulars: 100 μg/ml.
Another assay concerns TNF-α. The experiment in a line: Intracellular TNF-α in LPS-stimulated murine neutrophils (flow cytometry). In kind it is cell-based. Particulars: 100 μg/ml. The protocol:
The present inventors also adduce extra evidence to support the ability of Calebin A to suppress intracellular TNF and extracellular IL-1β in murine neutrophil systems (Table II, Table III). Neutrophils are isolated by histopaque gradient method tested for their ability to produce in vitro TNF-α following stimulation with Lipopolysaccharide (LPS). The cells were incubated with phycoerythrin (PE)-labeled anti-mouse TNF-α in the dark, and after being washed with sterile PBS, samples were resuspended in PBS (pH 7.4) and acquired directly on the flow cytometer (BDLSR; Becton Dickinson). A fluorescence trigger was set on the PE […] parameter of the gated neutrophil populations (10,000 events). Rolipram at 100 μg/ml was used as standard inhibitor of TNF-α in this study. Fluorescence compensation, data analysis, and data presentation were performed using Cell Quest Pro software (Becton Dickinson).
A general note: In flow cytometry, cells or beads pass a laser one at a time.

Turning to `COc1ccc(C2CNC(=O)C2)cc1OC1CCCC1` (stereo not shown) [Rolipram, reference compound], the “% Activity (suppression of IL-1 β expression)” value in the assay with IL-1β is 56.52%↓. Besides, the “IL-1β Concentration” value in the assay on IL-1β (LPS Control 51.80 ± 2.18) came out at 22.52 ± 1.60 pg/mL. Also, the “% Activity (suppression of TNF-α expression)” value in the assay with TNF-α stood at 72.13%↓. In addition, the “Expression of TNF-α Mean ± S.E” value in the assay on TNF-α (LPS Control 2.62 ± 0.01) is on record as 0.73 ± 0.09.
